In ChEMBL document CHEMBL5727988, “Prodrugs of pyridone amides useful as modulators of sodium channels” (2020) one finds IC50 data, which are given here for two compounds.

A short description of this test: Electrophysiology Assay: Patch clamp electrophysiology was used to assess the efficacy and selectivity of sodium channel blockers in dorsal root ganglion neurons. Rat neurons were isolated from the dorsal root ganglions and maintained in culture for 2 to 10 days in the presence of NGF (50 ng/ml) (culture media consisted of NeurobasalA supplemented with B27, glutamine and antibiotics). Small diameter neurons (nociceptors, 8-12 μm in diameter) were visually identified and probed with fine tip glass electrodes connected to an amplifier (Axon Instruments). The “voltage clamp” mode was used to assess the compound's IC50 holding the cells at −60 mV. In addition, the “current clamp” mode was employed to test the efficacy of the compounds in blocking action potential generation in response to current injections. A general note: In patch-clamp work, channel activity is measured electrically.

Molecules are shown by their SMILES.

What is called IC50 is the concentration that inhibits the measured activity by half. With `COc1cc(NC(=O)c2ccc(C(F)(F)F)cc2F)ccn1`, the IC50 turned out to be 44 nM.
For `Cc1cc(F)ccc1Oc1cc(C(F)(F)F)ccc1C(=O)Nc1ccn(CCl)c(=O)c1`, the IC50 was 28 nM.
